From PMC11239005, “Preclinical studies of RA475, a guanidine-substituted spirocyclic candidate RPN13/ADRM1 inhibitor for treatment of ovarian cancer” (PLOS ONE, 2024)
“And” between values parts separate entries of the source, which are not always exact repeats. Equal entries are not always repeated. Where two headings read alike, the source gives them in different places.

Experiment: Single dose plasma pharmacokinetics in CD1 mice
Type: in vivo, mouse
Method: For single dose pharmacokinetic studies, plasma samples (40 μL) were mixed with 200 μL of a water-methanol (1:9, v/v) containing the internal standard elacridar at 80 ng/mL. After mixing by pipetting and centrifuging for 4 min at 5500 x g, 0.25 μL of the supernatant was injected into LC-MS/MS system. […] Mobile phase A was acetonitrile/water (5:95, v/v) containing 1% formic acid, and mobile phase B was acetonitrile containing 0.1% formic acid. The gradient was initiated with mobile phase B at 10% with a flow rate of 0.4 mL/min, increased to 100% over 0.9 min and then and held for 0.1 min, and returned back to 10% mobile phase B and allowed to equilibrate until 2.2 min. An SCIEX 5000 triple quadrupole mass spectrometer operated in positive electrospray ionization mode was used for the detection of RA475. The lower limit of quantitation (LLOQ) in plasma was 10 ng/mL.
Pharmacokinetic parameters were calculated from mean concentration-time data using non-compartmental methods in Phoenix WinNonlin version 8.3 (Certara, Princeton, NJ). Concentrations after the time 0 sample that were below the LLOQ were imputed with ½ that value (1 ng/mL). Any concentration that was determined to be an outlier by the Grubbs’s outlier test were excluded from analysis. The maximum plasma concentration (Cmax) and time to Cmax (Tmax) were the observed values. The AUClast was calculated using the log-linear trapezoidal method. AUC was extrapolated to infinity (AUCINF) by dividing the last quantifiable concentration by the terminal disposition rate constant (λz). The λz was determined from at least 3 points on the slope of the terminal phase of the concentration-time profile. The terminal half-life (T1/2) was determined by dividing 0.693 by λz. Clearance (Cl) or apparent Cl (Cl/F) was calculated by dividing the dose administered by AUCINF. Volume of distribution (V) or apparent V (V/F) was calculated by dividing Cl or Cl/F by λz. […] The oral and IP bioavailability was calculated as: F(%)=DoseIV×AUCINFPO/DosePO×[…].100%
The Method of Bailer was used to estimate the variance of AUC given the calculated variance of the mean concentration at each time point. A pairwise comparison utilizing Z test was used to determine whether there was a significant difference between RA475 exposures as expressed by AUC last. Additionally, the Up284 exposure was truncated to 8 h and compared to the same route of administration and exposure as RA475. In all cases, p < 0.05 was considered statistically significant.
CD1 (n = 4 per time point and condition; 8 weeks old, 26.8±3g) mice were administered a single dose of RA475, either IV (10 mg/kg), PO (40 mg/kg), or IP (40 mg/kg), and thereafter serial blood plasma samples were analyzed for RA475 levels by LC–MS/MS. The animals were randomly assigned to the treatment groups (S9 Table) and fasted for 4 h before dosing. Eight time points for IV and IP (0.083, 0.25, 0.5, 1, 2, 4, 6, and 8 h) and seven time points for PO (0.25, 0.5, 1, 2, 4, 6, and 8) administration were set for this pharmacokinetic study. Mice were injected IP with 2,2,2-tribromoethanol at the dose of 150 mg/kg prior to drawing the blood in microtainers containing K3EDTA via retro-orbital bleeding. Blood samples were centrifuged 10 min at 3000 rpm. All samples were immediately processed, flash-frozen and stored at -70°C until subsequent analysis. No obvious adverse effects were observed during this PK study. The average RA475 plasma concentrations data for IV, IP, and PO dosed groups (S10–S12 Tables) is graphically presented in Fig 4, and may be compared to published data for Up284 [37]. Pharmacokinetic parameters were calculated from mean concentration-time data using non-compartmental methods in Phoenix WinNonlin version 8.3 (Certara, Princeton, NJ) (S13 Table). Using the Method of Bailer, there was no difference in dose normalized AUClast by any route of administration of RA475.

[1] = male, CD1, mouse, plasma, ip, 40 mg/kg, IP 40 mg/Kg
[2] = male, CD1, mouse, plasma, po, 40 mg/kg, PO 40 mg/Kg
[3] = male, CD1, mouse, plasma, IP 40 mg/kg
[4] = male, CD1, mouse, plasma, IV 10 mg/kg
[5] = male, CD1, mouse, plasma, PO 40 mg/kg

## Cl.Cl.N#Cc1ccc(/C=C2/C(=O)/C(=C/c3ccc(C#N)cc3)C23CCN(C(=N)N)CC3)cc1 [RA475, 1,3-bis((E)-4-cyanobenzylidene)-2-oxo-7-azaspiro[3.5]nonane-7-carboximidamide dihydrochloride]
CD1, mouse, plasma, ip, 40 mg/kg, IP 40 mg/Kg, 360 min, read-out: Plasma concentration, Group A-D
  concentration at 360 min: 327 ng/mL
CD1, mouse, plasma, IP 40 mg/kg
  bioavailability: 103%
CD1, mouse, plasma, PO 40 mg/kg
  bioavailability: 1.1%
IP 40 mg/Kg, 240 min, 40 mg/kg
  Plasma concentration, Group A-D: 484 ng/mL and 577 ng/mL and 614 ng/mL
IP 40 mg/Kg, 480 min, 40 mg/kg
  Plasma concentration, Group A-D: 118 ng/mL and 174 ng/mL and 125 ng/mL
PO 40 mg/Kg, 30 min, 40 mg/kg
  Plasma concentration, Group A-D: 60 ng/mL and 57 ng/mL and 52 ng/mL
PO 40 mg/Kg, 60 min, 40 mg/kg
  Plasma concentration, Group A-D: 33 ng/mL and 35 ng/mL and 44 ng/mL
PO 40 mg/Kg, 240 min
  Plasma concentration, Mean: BQL
PO 40 mg/Kg, 360 min
  Plasma concentration, Mean: BQL
PO 40 mg/Kg, 360 min, LLOQ 10 ng/mL
  Plasma concentration, Group A-D: BQL
PO 40 mg/Kg, 480 min
  Plasma concentration, Mean: BQL
PO 40 mg/Kg, 480 min, LLOQ 10 ng/mL
  Plasma concentration, Group A-D: BQL
RA475 vs Up284
  dose-normalized Cmax, fold higher than Up284: 2.3 fold
[1]
  concentration at 15 min: 11500 ng/mL
  concentration at 120 min: 969 ng/mL
male, CD1, mouse, plasma, ip, 40 mg/kg, IP 40 mg/Kg, 30 min, read-out: Plasma concentration, Mean
  concentration at 30 min: 9350 ng/mL
male, CD1, mouse, plasma, ip, 40 mg/kg, IP 40 mg/Kg, 60 min, read-out: Plasma concentration, Mean
  concentration at 60 min: 3580 ng/mL
male, CD1, mouse, plasma, ip, 40 mg/kg, IP 40 mg/Kg, 240 min, read-out: Plasma concentration, Group A-D
  concentration at 240 min: 356 ng/mL
male, CD1, mouse, plasma, ip, 40 mg/kg, IP 40 mg/Kg, 240 min, read-out: Plasma concentration, Mean
  concentration at 240 min: 508 ng/mL
male, CD1, mouse, plasma, ip, 40 mg/kg, IP 40 mg/Kg, 360 min, read-out: Plasma concentration, Mean
  concentration at 360 min: 125 ng/mL
male, CD1, mouse, plasma, ip, 40 mg/kg, IP 40 mg/Kg, 480 min, read-out: Plasma concentration, Group A-D
  concentration at 480 min: 105 ng/mL
male, CD1, mouse, plasma, ip, 40 mg/kg, IP 40 mg/Kg, 480 min, read-out: Plasma concentration, Mean
  concentration at 480 min: 131 ng/mL
[2]
  concentration at 15 min: 141 ng/mL
  concentration at 120 min: 20 ng/mL
male, CD1, mouse, plasma, po, 40 mg/kg, PO 40 mg/Kg, 30 min, read-out: Plasma concentration, Group A-D
  concentration at 30 min: 69 ng/mL
male, CD1, mouse, plasma, po, 40 mg/kg, PO 40 mg/Kg, 30 min, read-out: Plasma concentration, Mean
  concentration at 30 min: 60 ng/mL
male, CD1, mouse, plasma, po, 40 mg/kg, PO 40 mg/Kg, 60 min, read-out: Plasma concentration, Group A-D
  concentration at 60 min: 29 ng/mL
male, CD1, mouse, plasma, po, 40 mg/kg, PO 40 mg/Kg, 60 min, read-out: Plasma concentration, Mean
  concentration at 60 min: 35 ng/mL
male, CD1, mouse, plasma, po, 40 mg/kg, PO 40 mg/Kg, 240 min, LLOQ 10 ng/mL, read-out: Plasma concentration, Group A-D
  concentration at 240 min: 20 ng/mL
[3]
  AUC(0-t): 11300 ng·h/mL
  Cmax: 11500 ng/mL
  Tmax: 15 min
[4]
  AUC(0-inf): 2780 ng·h/mL
  AUC(0-t): 2730 ng·h/mL
  Cmax: 10500 ng/mL
  half-life: 126 min
[5]
  AUC(0-inf): 139 ng·h/mL
  AUC(0-t): 118 ng·h/mL
  Cmax: 142 ng/mL
  Tmax: 15 min
  half-life: 96 min
male, CD1, mouse, plasma, PO 40 mg/kg, read-out: Cl or Cl/F (converted)
  CL/F: 289 L/h/kg
mouse, plasma, IV 10 mg/kg, male CD1 mice
  Tmax: 4.98 min
plasma, IV 10 mg/kg
  Cl or Cl/F: 0.216 L/h/kg
  V or V/F: 10.9 L/kg
plasma, PO 40 mg/kg
  V or V/F: 668.1 L/kg
